Laboratory results from patent US11541065B2, “Compositions and methods for treating brain injury” (UNM RAINFOREST INNOVATIONS, priority 2018, dated 2023).

Columns and labels:
Type in all cases: cell-based
[1] = tested on: ERK MAPK; experiment: ERK MAPK phosphorylation in rat cortical neuron cultures (immunoblot)
Text: Primary cortical neuronal cultures were established from embryos obtained from pregnant Sprague Dawley female rats (16-17 day gestation) as previously described (Podder and Paul, 2009, J Neurochem 110:1095-1106; Poddar and Paul, 2013, J Neurochem 124: 558-570). Primary cortical neuronal cultures were also developed from pregnant wildtype or GluN2A-knockout mice (15-16 day gestation) using similar protocols. The cells were maintained in culture for 12-14 days prior to treatment with homocysteine. L-homocysteine (200 mM stock) was prepared by alkali hydrolysis of L-homocysteine thiolactone hydrochloride followed by neutralization with 2N HCL and maintained in 0.02 mM N-Tris(hydroxymethyl)methyl-2-aminoethanesulfonicd acid (TES) buffer pH 7.4 (Poddar et al., 2001, Circulation 103:2717-2723). For receptor stimulation neurons were treated with freshly prepared 50 μM of L-homocysteine in Hank's balanced salt solution (Podder and Paul, 2009, J Neurochem 110:1095-1106; Poddar and Paul, 2013, J Neurochem 124: 558-570) containing 50 μM of glycine (Lipton et al., 1997, Proc Natl Acad Sci USA 94:5923-5928). In a subset of culture plates, pharmacological inhibitors (NVP-AAM007) were added […] prior to homocysteine addition and maintained during homocysteine treatment. Cells were processed for immunoblotting or Hoechst DNA staining.
Equal protein from total cell lysates obtained from rat and mice neuronal cultures were resolved in 7.5% SDS-PAGE, and subjected to immunoblotting procedure as described earlier (Podder and Paul, 2009, J Neurochem 110:1095-1106). Blots were analyzed with antibodies as described in each experiment. All primary antibodies (anti-pERK, anti-ERK) and secondary-horse radish peroxidase conjugated antibody concentrations were used according to recommendations provided by the manufacturer. Signals from immune complexes in the blots were developed using West Pico supersignal chemiluminescence reagents and then captured on X-ray films. Densitometric analysis of the images was performed using the Image J software.
(§1) Embryos obtained from pregnant Sprague Dawley rats (16-17-day gestation) or wild type (WT) and GluN2A KO mice (15-16-day gestation) were used to establish primary cortical neuronal cultures as previously described (Poddar and Paul, 2009, J Neurochem 110:1095-1106; Poddar and Paul, 2013, J Neurochem 124:558-570; Poddar et al., 2017, J Neurochem 142:560-573). Neurons were grown on either (a) 35-mm culture dishes (MatTek Corp., Ashland, Mass.) coated overnight with poly-D-lysine (50 μg/ml) and laminin (10 μg/ml) for Ca^2+ imaging studies, (b) poly-D-lysine-coated 60 mm dishes (Corning BIOCOAT, Corning Inc., Corning, N.Y.) for biochemical studies, or (c) poly-D-lysine-coated 4-well culture slides (Corning BIOCOAT, Corning Inc., Corning, N.Y.) for cell death assay. Neurons were maintained in culture for 12-13 days before experiment. The cells were treated with freshly prepared L-homocysteine (50 μM) in Hank's balanced salt solution containing 50 μM of glycine (Lipton et al., 1997, Proceedings of the National Academy of Sciences of the United States of America 94:5923-5928; Poddar and Paul, 2009, J Neurochem 110:1095-1106; Poddar and Paul, 2013, J Neurochem 124:558-570; Poddar et al., 2017, J Neurochem 142:560-573) for the specified time periods. In a parallel series of experiments, cells were treated with glutamate (50 μM) for the specified time periods. Cells were then processed for live cell imaging, immunoblotting or cell death assay. In some experiments EGTA, DL-AP5, NVP-AAM077, Ro 25-6981 or PD98059 was added 15 minutes prior to L-homocysteine or glutamate treatment.
Rat and mice neuron cultures were harvested in SDS sample buffer (Laemmli, 1970, Nature 227:680-685). […]

[2] = tested on: PGE2; experiment: PGE2 release from rat neuronal cultures (enzyme immunoassay / ELISA of culture media); details: for effect on homocysteine-induced PGE2 release: rat neurons, L-homocysteine 50 μM four hours, with DL-AP5 200 μM, MK801 10 μM, NVP-AAM077 30 nM, Ro 25-6981 1 μM, PD98059 15 μM, SB203580 5 μM, Bengamide B 500 nM or CAY10404 100 nM
Protocol: Neuron cultures were treated with or without L-homocysteine in the presence or absence of pharmacological inhibitors for the time period specified in each experiment. The medium was collected from each experimental plate and centrifuged at 1000 rpm for five minutes to remove cellular debris. Equal amounts (100 μl) of the supernatant from each sample were used to determine the amount of PGE2 using the PGE2 enzyme immunoassay kit according to the manufacturer's instructions. For measurement of cPLA2 activity, the neuronal cells from the above treated conditions were harvested in ice-cold Tris-buffered saline (pH7.4) containing sodium pyrophosphate as phosphatase inhibitor, sonicated three times with five-second bursts and two minutes on ice between intervals. The lysed cell suspensions were centrifuged at 10,000 rpm for 10 minutes and the supernatant removed. Equal amounts of protein from the supernatant (assessed using BCA protein estimation kit) were estimated for activity of cPLA2 using cPLA2 activity assay kit according to the manufacturer's protocol.
For measurement of PGE2 levels and MCP-1 levels released from neurons, culture medium was collected from each experimental plate and centrifuged at 1000 rpm for five minutes to remove cellular debris. Equal volume (100 μl) of the supernatant from each sample was used to determine PGE2 level using the PGE2 ELISA kit according to the manufacturer's instructions.

[3] = tested on: [Ca^2+]i; experiment: Intracellular Ca^2+ by Fura2 imaging, rat neuronal cultures; details: for effect on homocysteine-induced increase in Fura2 fluorescence ratio and [Ca^2+]i: rat neurons, somata and processes, L-homocysteine 50 μM 60 minutes, with EGTA 2 mM, DL-AP5 200 μM, NVP-AAM077 30 nM or Ro 25-6981 1 μM
Protocol: as §1
[Ca^2+]i in neurons was determined using the fluorescent indicator, Fura2-AM. Briefly, neurons were loaded with Fura2 (10 μM) in phenol red free Hank's balanced salt solution for 30 minutes at 37° C. followed by post-incubation for 20 minutes (Paul, S. and Connor, J. A., 2010, J Neurochem 114:1107-1118). Time lapse live cell imaging was performed following stimulation using a Nikon Ti Eclipse inverted microscope equipped with Tokai Hit stage top incubator maintained at 37° C. and infused with 95:5% air:CO2 mixture. Fields of 5-8 cells were imaged using a 40× oil immersion objective (Nikon). Fluorescence excitations (340 and 380 nm) were provided with Sutter LB-LS/30 Lambda xenon arc lamp and fluorescence emissions (510 nm) were captured using a CCD camera (Teledyne Photometries, Tucson, Ariz.). NIS Elements AR software was used for data acquisition and analysis. Ratiometric data (340/380 nm) from regions of interest were corrected for background and converted into estimates of [Ca^2+]i. as described previously (Paul, S. and Connor, J. A., 2010, J Neurochem 114:1107-1118) using the equation developed earlier (Grynkiewicz et al., 1985, J Biol Chem 260:3440-3450). Maximum and minimum fluorescence ratios were determined from Fura2 loaded cells treated with ionomycin (5 μM) in calcium containing medium (2 mM) or in calcium free media with EGTA (0.5 mM).

[4] = rat cortical neurons, L-homocysteine 50 μM four hours, in presence of NVP-AAM077 (30 nM) or Ro 256981 (1 μM)

Row | Structure (SMILES) | ERK MAPK phosphorylation ([1]; rat cortical neurons, L-homocysteine 50 μM, four hours, alone) | PGE2 levels released into the medium ([2]; cortical neurons, L-homocysteine 50 μM, time course, alone) | maximum increase in [Ca^2+]i vs control cells ([3]; rat neurons (soma), L-homocysteine 50 μM, by 60 minutes) | effect on homocysteine-induced ERK MAPK phosphorylation [1, 4] | effect on homocysteine-induced ERK MAPK phosphorylation ([1]; rat neurons, L-homocysteine 50 μM for 30 minutes or 60 minutes, with DL-AP5 200 μM or NVP-AAM077 30 nM) | effect on glutamate-induced transient increase in ERK MAPK phosphorylation ([1]; rat neurons, glutamate 50 μM five min, with DL-AP5 200 μM or NVP-AAM077 30 nM) | effect on homocysteine-induced PGE2 release [2] | effect on homocysteine-induced increase in Fura2 fluorescence ratio and [Ca^2+]i [3]
1 | N[C@@H](CCS)C(=O)O [L-homocysteine] | significant increase in ERK MAPK phosphorylation | significant increase in PGE2 levels within two hours | approximately 7.2 folds | – | – | – | – | –
2 | C[C@H](NC(c1cccc2[nH]c(=O)c(=O)[nH]c12)P(=O)(O)O)c1ccc(Br)cc1 (stereo partly drawn) [NVP-AAM077, ({[(1S)-1-(4-bromophenyl)ethyl]amino}-(2,3-dioxo-1,4-dihydroquinoxalin-5-yl)methyl)phosphonic acid] | – | – | – | blocks homocysteine-induced ERK MAPK phosphorylation | attenuates homocysteine-induced ERK MAPK phosphorylation | fails to ameliorate | significantly reduced | attenuates homocysteine-induced increase in Fura2 fluorescence ratio and [Ca^2+]i
3 | C[C@@H](CN1CCC(Cc2ccccc2)CC1)[C@@H](O)c1ccc(O)cc1 [Ro 25-6981] | – | – | – | has no effect | – | – | fails to alter homocysteine-induced increase in PGE2 level | fails to attenuate homocysteine-induced [Ca^2+]i increase
